Reference: ChEMBL document CHEMBL1142930, “Cyathane diterpenes from Sarcodon cyrneus and evaluation of their activities of neuritegenesis and nerve growth factor production” (2007)
Activity calls are given as the source filed them. No cut-off for these calls is given here.

Tests used:
PC-12 = experiment: Stimulation of neurite outgrowth in rat PC12 cells assessed as morphological change at 200 uM after 24 hrs; assay type: functional, cell-based
[1] = Induction of NGF gene expression in human 1321N1 cells at 200 uM relative to control; assay type: functional

SMILES | Activity (PC-12) | Fold change [1]
CC(C)C1=CC(=O)[C@]2(C)CC[C@]3(C)C(=CC=C(C=O)C[C@@H]3O)[C@H]12 [GLAUCOPINE C] | inactive | 3.5
CC(C)C1=CC(=O)[C@]2(C)CC[C@]3(C)C(=CC=C(C=O)C[C@@H]3O)[C@]12O [CYRNEINE B] | – | 7.3
CC(C)C1=CC(=O)[C@]2(C)CC[C@@]3(C)C(=O)CC(C=O)=CC[C@@H]3[C@H]12 [CYRNEINE C] | inactive | 2.7
CC(C)C1=C2C3=CC=C(C=O)C[C@H](O)[C@]3(C)CC[C@@]2(C)[C@H](O)C1 [CYRNEINE A] | – | 3.8
CC(C)C1=CC(=O)[C@]2(C)CC[C@@]3(C)C(=O)CC(C=O)=CC[C@@H]3[C@]12O [CYRNEINE D] | inactive | 1.3
